# Columns and labels:
# [1] = tested on: patients with negative symptoms of schizophrenia; test: Integrated analysis (pooled ITT): PSP Total score; type: in vivo, human; parameters: key to PSP Total score, LS mean change from Baseline compared with placebo / PSP Total Score change from Baseline, Median: change in PSP Total score (scale 1-100, higher = better functioning); details: for PSP Total Score change from Baseline, LS mean (SE) / PSP Total Score change from Baseline, Mean (SD) / PSP Total Score change from Baseline, Median / PSP Total Score, Difference (95% CI) in LS mean (vs placebo): DB; for PSP Total Score change from Baseline, LS mean (SE) / PSP Total Score change from Baseline, Mean (SD) / PSP Total Score change from Baseline, Median / PSP Total Score, Difference (95% CI) in LS mean (vs placebo) / PSP Total score, LS mean change from Baseline compared with placebo: pooled ITT; for PSP Domain Disturbing and Aggressive Behavior, Change from Baseline (LS Means [SEM]) / PSP Domain Personal and Social Relationships, Change from Baseline (LS Means [SEM]) / PSP Domain Self-Care, Change from Baseline (LS Means [SEM]) / PSP Domain Socially Useful Activities, Change from Baseline (LS Means [SEM]) / PSP Total Score, Change from Baseline (LS Means [SEM]): ITT; for Patients with high improvement in PSP Total score (magnitude of change ≥10) / Patients with moderate improvement in PSP Total score (magnitude of change 7-9) / Patients with moderate or high improvement in PSP Total score, total: pooled; for Patients with 7-Point Improvement in PSP Total Score at Week 12, percent / Number of Patients with 7-Point improvement in PSP Total Score at Week 12: responder analysis; for Number of Patients with 7-Point improvement in PSP Total Score at Week 12: n/N
# Description: The primary integrated analysis of the efficacy of Roluperidone compared with placebo for the treatment of negative symptoms of schizophrenia is based on the change from Baseline in the PANSS Marder's negative symptoms factor score (in this document referred to as NSFS) to Week 12. Efficacy is also supported by the analysis of change from Baseline in the PSP Total score and the CGI-S to Week 12.
# The PSP is a validated clinician-rated scale intended to reflect real-life situations that measures personal and social functioning in 4 domains: (a) socially useful activities, (b) personal and social relationships, (c) self-care, and (d) disturbing and aggressive behaviors. The score is based on the assessment of a patient's performance in the 4 domains. The PSP Total score is a single measurement of functioning ranging from 1 to 100, where a higher score represents better functioning. A score of 91 to 100 indicates excellent functioning in all 4 main areas; the patient is held in high consideration for their good qualities, copes adequately with life problems, and is involved in a wide range of interests and activities. A score of 1 to 10 indicates a lack of autonomy in basic functioning with extreme behaviors but without survival risk (score 6 to 10) or with survival risk (score 1 to 5). […] Review of the relevant scientific literature and the analysis of the psychometric properties of the 4 domains that result in the generation of the PSP Total score were supportive of the appropriateness and cross-cultural applicability of the use of the PSP in drug development for the indication of negative symptoms of schizophrenia The PSP was assessed at the timepoints described in Table 6. The changes from Baseline in the PSP Total score and individual domain scores after 12 weeks of treatment were exploratory efficacy endpoints in Study MIN-101C03, and the Total score was the key secondary efficacy endpoint and the PSP domain scores were exploratory endpoints in Study MIN-101C07.
# (§1) The Efficacy data from Study Nos. 1 and 2 were pooled. The majority of patients in the pooled ITT population completed the DB period (502 patients overall, 66.3%), with similar rates in each treatment group (placebo: 69.8%, 32 mg Roluperidone: 65.3%, and 64 mg Roluperidone: 63.8%) (Table 12). The majority (62.7%) of those who completed the DB period entered the OL period. The most common reason for discontinuation during the DB period among patients overall was withdrawal of consent (15.6%), followed by adverse events (7.3%) and lack of efficacy (5.4%) (Table 12). […] Approximately twice as many patients in the Roluperidone groups (32 mg: 8.5%; 64 mg: 9.1%) discontinued due to adverse events compared with patients in the placebo group (4.3%). More patients in the placebo group discontinued due to lack of efficacy (6.7%) than in the Roluperidone groups (32 mg: 4.4%; 64 mg: 5.1%). The low number of patients who discontinued due to lack of efficacy or withdrawal of consent probably reflects a low level of worsening of positive symptoms.
# The integrated analysis supporting the efficacy of Roluperidone as a treatment for the negative symptoms of schizophrenia in adults is presented below.
# [2] = tested on: patients with negative symptoms of schizophrenia; test: Integrated analysis (pooled ITT): patient disposition, reasons for withdrawal; type: in vivo, human; details: for Withdrawn from double-blind period: Adverse event, % / Withdrawn from double-blind period: Death, % / Withdrawn from double-blind period: Lack of efficacy, %: DB
# Description: as §1
# A similar proportion of patients in each OL treatment group entered the OL period from the DB period (range: 61.3% to 65.6%) (Table 13). The most common reason for discontinuation in the OL period among patients was withdrawal of consent (93 patients, 12.3%), followed by adverse event (45 patients, 5.9%) and lack of efficacy (16 patients, 2.1%).
# [3] = Placebo in DB to 32 mg in OL (N = 128)
# [4] = Placebo in DB to 64 mg in OL (N = 127)
# [5] = Placebo in DB to Roluperidone in OL, Total (N = 255)
# [6] = Roluperidone at Any Time 32 mg (N = 376)
# [7] = Roluperidone at Any Time 64 mg (N = 381)
substance,measurement,setting,value
"1H-Isoindol-1-one,2-[ [1-[2-(4-fluorophenyl)-2-oxoethyl]-4-piperidinyl]methyl]-2,3-dihydro-, hydrochloride, hydrate (1:1:2) [Roluperidone]","PSP Total Score change from Baseline, LS mean (SE)","[1]; 32 mg, Week 4",1.6 (0.52)
same,"PSP Total Score change from Baseline, Mean (SD)","[1]; 32 mg, Week 4",1.5 (7.87)
same,"PSP Total Score change from Baseline, Median","[1]; 32 mg, Week 4",0.0
same,"PSP Total Score, Difference (95% CI) in LS mean (vs placebo)","[1]; 32 mg, Week 4",0.7
same,"PSP Total Score change from Baseline, LS mean (SE)","[1]; 32 mg, Week 8",2.9 (0.62)
same,"PSP Total Score change from Baseline, Mean (SD)","[1]; 32 mg, Week 8",3.6 (7.04)
same,"PSP Total Score change from Baseline, Median","[1]; 32 mg, Week 8",2.0
same,"PSP Total Score, Difference (95% CI) in LS mean (vs placebo)","[1]; 32 mg, Week 8",0.6
same,"PSP Total Score change from Baseline, LS mean (SE)","[1]; 32 mg, Week 12",3.3 (0.71)
same,"PSP Total Score change from Baseline, Mean (SD)","[1]; 32 mg, Week 12",3.5 (10.03)
same,"PSP Total Score change from Baseline, Median","[1]; 32 mg, Week 12",2.0
same,"PSP Total Score, Difference (95% CI) in LS mean (vs placebo)","[1]; 32 mg, Week 12",0.5
same,"PSP Domain Disturbing and Aggressive Behavior, Change from Baseline (LS Means [SEM])","[1]; 32 mg, Week 12",−0.1 (0.04)
same,"PSP Domain Personal and Social Relationships, Change from Baseline (LS Means [SEM])","[1]; 32 mg, Week 12",−0.3 (0.05)
same,"PSP Domain Self-Care, Change from Baseline (LS Means [SEM])","[1]; 32 mg, Week 12",−0.3 (0.05)
same,"PSP Domain Socially Useful Activities, Change from Baseline (LS Means [SEM])","[1]; 32 mg, Week 12",−0.3 (0.05)
same,"PSP Total Score, Change from Baseline (LS Means [SEM])","[1]; 32 mg, Week 12",3.3 (0.71)
same,"PSP Total score, LS mean change from Baseline compared with placebo","[1]; 32 mg, Week 12",0.5
same,Patients with high improvement in PSP Total score (magnitude of change ≥10),[1]; 32 mg,26%
same,Patients with moderate improvement in PSP Total score (magnitude of change 7-9),[1]; 32 mg,7%
same,"Patients with moderate or high improvement in PSP Total score, total",[1]; 32 mg,33%
same,"Patients with 7-Point Improvement in PSP Total Score at Week 12, percent",[1]; 32 mg,33%
same,Number of Patients with 7-Point improvement in PSP Total Score at Week 12,[1]; 32 mg,54/166
same,"PSP Total Score change from Baseline, LS mean (SE)","[1]; 64 mg, Week 4",3.1 (0.52)
same,"PSP Total Score change from Baseline, Mean (SD)","[1]; 64 mg, Week 4",3.1 (8.33)
same,"PSP Total Score change from Baseline, Median","[1]; 64 mg, Week 4",1.0
same,"PSP Total Score, Difference (95% CI) in LS mean (vs placebo)","[1]; 64 mg, Week 4",2.1
same,"PSP Total Score change from Baseline, LS mean (SE)","[1]; 64 mg, Week 8",4.9 (0.61)
same,"PSP Total Score change from Baseline, Mean (SD)","[1]; 64 mg, Week 8",4.8 (6.61)
same,"PSP Total Score change from Baseline, Median","[1]; 64 mg, Week 8",3.0
same,"PSP Total Score, Difference (95% CI) in LS mean (vs placebo)","[1]; 64 mg, Week 8",2.6
same,"PSP Total Score change from Baseline, LS mean (SE)","[1]; 64 mg, Week 12",6.4 (0.69)
same,"PSP Total Score change from Baseline, Mean (SD)","[1]; 64 mg, Week 12",6.4 (10.32)
same,"PSP Total Score change from Baseline, Median","[1]; 64 mg, Week 12",4.5
same,"PSP Total Score, Difference (95% CI) in LS mean (vs placebo)","[1]; 64 mg, Week 12",3.6
same,"PSP Domain Disturbing and Aggressive Behavior, Change from Baseline (LS Means [SEM])","[1]; 64 mg, Week 12",−0.0 (0.04)
same,"PSP Domain Personal and Social Relationships, Change from Baseline (LS Means [SEM])","[1]; 64 mg, Week 12",−0.4 (0.05)
same,"PSP Domain Self-Care, Change from Baseline (LS Means [SEM])","[1]; 64 mg, Week 12",−0.3 (0.05)
same,"PSP Domain Socially Useful Activities, Change from Baseline (LS Means [SEM])","[1]; 64 mg, Week 12",−0.4 (0.05)
same,"PSP Total Score, Change from Baseline (LS Means [SEM])","[1]; 64 mg, Week 12",6.4 (0.69)
same,"PSP Total score, LS mean change from Baseline compared with placebo","[1]; 64 mg, Week 12",3.6
same,Patients with high improvement in PSP Total score (magnitude of change ≥10),[1]; 64 mg,36%
same,Patients with moderate improvement in PSP Total score (magnitude of change 7-9),[1]; 64 mg,7%
same,"Patients with moderate or high improvement in PSP Total score, total",[1]; 64 mg,43%
same,"Patients with 7-Point Improvement in PSP Total Score at Week 12, percent",[1]; 64 mg,43%
same,Number of Patients with 7-Point improvement in PSP Total Score at Week 12,[1]; 64 mg,76/176
same,"PSP Total Score change from Baseline, Mean (SD)","[1]; Roluperidone Total, Week 4",2.3 (8.14)
same,"PSP Total Score change from Baseline, Median","[1]; Roluperidone Total, Week 4",0.0
same,"PSP Total Score change from Baseline, Mean (SD)","[1]; Roluperidone Total, Week 8",4.2 (6.84)
same,"PSP Total Score change from Baseline, Median","[1]; Roluperidone Total, Week 8",3.0
same,"PSP Total Score change from Baseline, Mean (SD)","[1]; Roluperidone Total, Week 12",5.0 (10.27)
same,"PSP Total Score change from Baseline, Median","[1]; Roluperidone Total, Week 12",3.0
same,"Withdrawn from double-blind period: Adverse event, %",[2]; 32 mg (N = 248),8.5%
same,"Withdrawn from double-blind period: Death, %",[2]; 32 mg (N = 248),0.4%
same,"Withdrawn from double-blind period: Lack of efficacy, %",[2]; 32 mg (N = 248),4.4%
same,"Withdrawn from double-blind period: Adverse event, %",[2]; 64 mg (N = 254),9.1%
same,"Withdrawn from double-blind period: Lack of efficacy, %",[2]; 64 mg (N = 254),5.1%
same,"Withdrawn from OL period: Adverse event, %",[2]; [3],(6.3) %
same,"Withdrawn from OL period: Lack of efficacy, %",[2]; [3],(3.1) %
same,"Withdrawn from OL period: Adverse event, %",[2]; [4],(3.9) %
same,"Withdrawn from OL period: Lack of efficacy, %",[2]; [4],(1.6) %
same,"Withdrawn from OL period: Adverse event, %",[2]; [5],(5.1) %
same,"Withdrawn from OL period: Lack of efficacy, %",[2]; [5],(2.4) %
same,"Withdrawn from double-blind period: Adverse event, %",[2]; Roluperidone Total (N = 502),8.8%
same,"Withdrawn from double-blind period: Death, %",[2]; Roluperidone Total (N = 502),0.2%
same,"Withdrawn from double-blind period: Lack of efficacy, %",[2]; Roluperidone Total (N = 502),4.8%
same,"Withdrawn from OL period: Adverse event, %",[2]; [6],(5.6) %
same,"Withdrawn from OL period: Lack of efficacy, %",[2]; [6],(2.1) %
same,"Withdrawn from OL period: Adverse event, %",[2]; [7],(6.3) %
same,"Withdrawn from OL period: Lack of efficacy, %",[2]; [7],(2.1) %

# From US20230255953A1, “USE OF ROLUPERIDONE IN PREVENTING RELAPSE IN SCHIZOPHRENIA PATIENTS” (Minerva Neurosciences, Inc., priority 2022, published 2023)
